Measurements from patent US12012394B2, “Alpha-synuclein ligands” (Washington University, priority 2018, dated 2024).
Where “and” joins values, the source holds several entries; their conditions need not be identical. Identical values can stand only once.

Columns and labels:
[1] = target: T1, PD-seeded fibrils (Homo sapiens (Human), UniProt P37840); experiment: Heterologous competition binding assay with [18F]TZ61-44 as radioligand; settings: radioligand [18F]TZ61-44, 25 nM PD-seeded fibrils; for Ki: Cheng-Prusoff from EC50
Experimental: (§1) The equilibrium inhibitor constant (Ki) of a series of compounds was measured using heterologous radioactive binding assays with [^18F]TZ61-44, […], or [^125I]TZ61-84 as the screening radioligands. EC50 values for each compound were determined by fitting the data to the equation Y=Bottom+(Top−Bottom)/(1+(X−Log EC50)^−Hillcoefficient) using nonlinear regression by Kaleidagraph software, where Top and Bottom are the Y values for the top and bottom plateaus of the binding curve. The Ki values were derived from the EC50 values using the Cheng-Prusoff equation: Ki=EC50/(1+[radioligand]/Kd). FIGS. 5A-5E show the inhibition curves for TG-1-90B, TZ55-101, TZ61-84, TZ55-107, and TZ55-81 using [^18F]TZ61-44 as the radioligand. FIG. 11B-C show the inhibition curves for two separate experiments on PD fibrils for TZ55-101 using […] as the radioligand. FIGS. 12A-12F show the inhibition curves for TZ66-3, TZ64-015, TZ64-016, TZ64-018, TZ64-019, and TZ64-020 using [^18F]TZ61-44 as the radioligand. FIGS. 13A-13D show the inhibition curves for TZ66-9, TZ66-8, and TZ55-107 using [^18F]TZ61-44 as the radioligand.

[2] = test system: AD Tissue 6843; experiment: Heterologous competition binding assay with [11C]Tg-1-90-B, AD tissue; settings: radioligand [11C]Tg-1-90-B
Experimental: FIG. 11D is a plot of a heterologous competition binding assay of TZ55-101 in the presence of the radioligand [^11C]Tg-1-90-B and AD tissue 6843.
as §1
The binding to AD fibrils was also assessed for TZ55-101 in FIG. 11D.

[3] = target: PD fibrils (Homo sapiens (Human), UniProt P37840); experiment: Heterologous competition binding assay with [11C]Tg-1-90B as radioligand; settings: radioligand Tg-1-90-B
Experimental: as §1

[4] = test system: Banner PD tissue; experiment: Specific binding of TZ61-84: displacement of [18F]TZ-61-84 from tissue; settings: [18F]TZ-61-84 at 0.0195 nM
Experimental: (§2) TZ61-84 was screened for binding to Banner PD tissue, AD tissue, α-synuclein fibrils, Aβ fibrils and in controls by measuring how well it displaced [^18F]TZ-61-84 (at 0.0195 nM) from each substrate.

[5] = target: T2, α-synuclein fibrils (Homo sapiens (Human), UniProt P37840); experiment: Specific binding of TZ61-84: displacement of [18F]TZ-61-84 from fibrils; settings: [18F]TZ-61-84 at 0.0195 nM
Experimental: as §2

[6] = target: Banner seeded fibrils (Homo sapiens (Human), UniProt P37840); experiment: Saturation binding of [125I]TZ61-84 to Banner seeded fibrils
Experimental: The binding efficacy (Kd) of TZ-61-84 was determined using a modified protocol. Specifically, saturation plots of radiolabeled [^125I]TZ61-84 were obtained measuring total and nonspecific binding of TZ61-84 to 100 nM Banner seeded fibrils. The results are depicted in FIG. 15B-15D and that TZ61-84 has a high binding affinity to α-synuclein (Kd<1 nM).

[7] = target: T1, PD-seeded fibrils; experiment: Radioligand competition, PD-seeded fibrils (Tg-1-90B as radioligand); type: binding; settings: PD-seeded fibrils (Tg-1-90B radioligand); hot concentration 2 nM
Experimental: (§3) A series of compounds were synthesized and the Ki (nM) in the presence of Fibrils 4174, PD-seeded fibrils (using Tg-1-90B as the radioligand), AD Tissue 6843 and/or AD Tissue 2846 was determined. In each experiment, the “hot” concentration was 2 nM.

[8] = target: Fibrils 4174 (Homo sapiens, UniProt P37840); experiment: 3H radioligand competition, Fibrils 4174; type: binding; settings: hot concentration 2 nM
Experimental: as §3

[9] = target: AD Tissue 2846; experiment: 3H radioligand competition, AD Tissue 2846; type: binding; settings: hot concentration 2 nM
Experimental: as §3

[10] = target: AD Tissue 6843; experiment: 3H radioligand competition, AD Tissue 6843; type: binding; settings: hot concentration 2 nM
Experimental: as §3

[11] = target: T2, α-synuclein fibrils; experiment: Thioflavin T fluorescence competitive assay; settings: read-out: Thioflavin T assay Ki; competition with ThT on recombinant α-synuclein fibrils; at least three experiments
Experimental: α-Synuclein recombinant protein was produced in E. coli. BL21(DE3)RIL E. coli were transformed with a pRK172 bacterial expression plasmid containing the human α-synuclein coding sequence. […] Overnight cultures were pelleted by centrifugation at 3,900×g for 10 min at 25° C. Bacterial pellets were resuspended in 20 mL osmotic shock buffer (30 mM Tris-HCl, 2 mM EDTA, 40% sucrose, pH 7.2) by gentle vortexing and incubated at room temperature for 10 minutes. The cell suspension was then centrifuged at 8,000×g for 10 min at 25° C. and the pellet was resuspended in 22.5 mL cold H2O before adding 9.4 μL 2 M MgCl2 to each tube. The suspension was incubated on ice for 3 min prior to centrifugation at 20,000×g for 15 min at 4° C. The supernatant was transferred to a fresh tube, streptomyocin was added to a final concentration of 10 mg/mL, and then centrifuged at 20,000×g for 15 min at 4° C. The supernatant from this step was collected and dithiothreitol (DTT) and Tris-HCl were added to final concentrations of 1 mM and 20 mM respectively, before boiling for 10 min to precipitate heat-sensitive proteins, which were pelleted at 20,000×g for 15 minutes at 4° C. The supernatant was collected and filtered through a 0.45 μm surfactant free cellulose acetate filter (Corning, Corning, NY) before loading onto a 1 mL DEAE Sepharose column equilibrated in 20 mM Tris-HCl pH 8, 1 mM EDTA, and 1 mM DTT. The DEAE column was washed with 20 mM Tris-HCl pH 8, 1 mM EDTA, 1 mM DTT before eluting α-synuclein protein in 20 mM Tris-HCl, pH 8, buffer with 1 mM EDTA, 1 mM DTT and 0.3 M NaCl. The purified α-synuclein protein was dialyzed overnight in 10 mM Tris-HCl, pH 7.6, 50 mM NaCl, and 1 mM DTT.
The purified, recombinant α-synuclein monomer (2 mg/mL) was incubated in Tris-HCl (20 mM) and NaCl (100 mM) while shaking at 1000 rpm in an Eppendorf Thermomixer in a 37° C. temperature-controlled room for 72 hours. To determine the concentration of fibrils, the reaction mixture (100 μL) was centrifuged at 18,000×g for 10 minutes to separate fibrils from monomer. The α-synuclein monomer and other soluble proteins in the supernatant were removed, and the fibril pellet was resuspended in 100 μL solution of Tris-HCl (20 mM) and NaCl (100 mM). This fibril suspension was used in a bicinchoninic acid (BCA) protein assay along with a bovine serum albumin (BSA) standard curve to determine the concentration of fibrils in the 72 hour fibril reaction mixture.
To prepare the fibrils for performing binding assays, the fibril reaction mixture prepared above was centrifuged at 18,000×g for 10 minutes. The supernatant was discarded and the fibril pellet was resuspended in Tris-HCl buffer (30 nM, pH=7.4) to achieve the desired concentration (3 or 6 μM) of fibrils for use in the assay.
The ThT solution (6 μM) in Tris-HCl buffer (30 nM, pH=7.4, 40 μL) was added to each of three cells in a 96 cell plate for fluorescence detection containing α-synuclein fibrils suspension (3.0 μM) in the Tris-HCl buffer (30 nM, pH=7.4, 40 μL). The mixture was incubated at room temperature for 1 hour on the shaking plate. The reaction plate was scanned by the excitation wavelength range from 430 to 465 nm. The maximum excitation wavelength (λex) was determined according to the fluorescent intensity-excitation wavelength curve.

[12] = test system: α-synuclein fibrils; experiment: Direct radioligand binding assay of [18F]28, α-synuclein fibrils; set-up: species or system human; settings: comparison of Kd on fibrils and AD tissue
Experimental: (§4) The equilibrium dissociation constant (Kd) for a series of compounds was determined using direct radioactive competitive binding assays (homologous or heterologous) with either recombinant α-synuclein fibrils or brain tissue homogenates from AD cases.
(§5) Recombinant protein was produced in E. coli using protocols based on previously described methods for α-synuclein [Giasson, B. I., et al., “Mutant and wild type human alpha-synucleins assemble into elongated filaments with distinct morphologies in vitro,” 1999, J Biol. Chem., 274:7619-7622; Huang, C., et al., “A new method for purification of recombinant human alpha-synuclein in Escherichia coli,” 2005, Protein Expr Purif, 42:173-177; Yu, L., et al, “Synthesis and in vitro evaluation of á-synuclein ligands,” 2012, Bioorg. […]
(§6) Purified recombinant α-synuclein monomer (2 mg/ml) was incubated in 20 mM Tris-HCl, pH 8.0, 100 mM NaCl for 72 h at 37 C with shaking at 1000 rpm in an Eppendorf Thermomixer. […] The concentration of α-synuclein monomer in the supernatant was determined in a BCA protein assay according to the manufacturer's instructions, using a bovine serum albumin (BSA) standard curve. The measured decrease in α-synuclein monomer concentration was used to determine the concentration of fibrils in the 72 h fibril reaction mixture. […]

[13] = target: T2, α-synuclein fibrils; experiment: as above; settings: α-synuclein fibrils
Experimental: as §4, §5, §6

[14] = test system: Banner AD tissue; experiment: Homologous competition radioligand binding assay, AD tissue; set-up: species or system human; settings: [18F]28
Experimental: as §4
Brain tissue samples were selected from an autopsy case series of patients evaluated for parkinsonism by movement disorders specialists at the Movement Disorders Center of Washington University School of Medicine in St. Louis. […] Dementia was determined by a movement disorders specialist based on clinical assessment of cognitive dysfunction sufficiently severe to impair activities of daily living, with further evaluation of cognitive impairment using the AD8 and Mini-Mental Status Exam (MMSE) [Galvin, J. E., et al., “The AD8: a brief informant interview to detect dementia,” 2005, Neurology 65:559-564; Folstein, M. F., et al., ““Mini-mental state”. […] LB stage was assessed at autopsy using a PD staging scale (range: 0, 1-6) [Braak, H., et al., “Stages in the development of Parkinson's disease-related pathology,” 2004, Cell Tissue Res., 318:121-134]. PD cases were selected based on a clinical diagnosis of PD plus dementia, Braak LB stage 5-6 pathology, and the absence of significant Aβ or tau pathology determined by immunohistochemistry. […]

Question: What does the source list for `COc1ccc(-c2ccc3cc(-c4cnc5ccccc5c4)ccc3n2)cn1` [TZ55-101]?
Answer: EC50 [1]: 15 nM; Ki [1]: 14 nM; affinity for AD fibrils [2]: did not show significant affinity; EC50 [3]: 21 nM and 11 nM; Ki ([3]; Cheng-Prusoff from EC50): 20 nM and 10 nM

Question: How did the EC50 [1] turn out when `COc1ccc(Nc2ccc3cc(OC/C=C/I)ccc3n2)cn1` [TZ61-84] was run?
Answer: 17 nM

Question: What about the Ki [1] of the same compound?
Answer: 16 nM

Question: And the “affinity for PD Banner tissue compared to AD Banner tissue” value [4]?
Answer: high affinity

Question: What about the “affinity for α-synuclein fibrils over Aβ fibrils” value [5] of the same compound?
Answer: slightly more affinity

Question: What about the Kd ([6]; 100 nM Banner seeded fibrils, saturation binding) of the same compound?
Answer: 0.34 nM and 0.5 nM

Question: What about the Kd ([6]; 100 nM fibrils, saturation plot, unit inferred) of the same compound?
Answer: 0.338 nM and 0.496 nM

Question: What about the Bmax ([6]; 100 nM fibrils, saturation plot, unit not given, listed as [^125I]TZ61-84) of the same compound?
Answer: 259.7 and 310.5

Question: For `COc1ccc2nc(-c3noc(-c4ccc5ncccc5c4)n3)ccc2c1` [TZ46-147], which Ki [7] is on record?
Answer: 39 nM

Question: What about the Ki [8] of the same compound?
Answer: 96 nM

Question: And the Ki [9]?
Answer: 30 nM

Question: And the Ki [10]?
Answer: 21 nM

Question: Which results are given for `COc1cc(-c2nc(-c3ccc4cc(OCCF)ccc4n3)no2)ccn1` [Compound 28, 3-(6-(2-Fluoroethoxy)quinolin-2-yl)-5-(2-methoxypyridin-4-yl)-1,2,4-oxadiazole]?
Answer: Ki [11]: 17 nM; selectivity for α-synuclein fibrils over AD tissues [12]: lacks selectivity; Kd [13]: 18 nM; Bmax [14]: 1082 pmol/mg; Kd [14]: 25 nM
